{
  "source": "patent US20140140929A1",
  "about": "“CHEMICALLY MODIFIED CELL-PENETRATING PEPTIDES FOR IMPROVED DELIVERY OF GENE MODULATING COMPOUNDS” (priority 2008, published 2014)",
  "key": {"HPRT1 in N2a cells": {"test_system": "HPRT1 in N2a cells", "test": "siRNA treatment, HPRT1 in N2a cells", "assay_type": "cell-based", "details": "target HPRT1", "protocol": "(§1) Phosphorothioate 2′O methyl RNA (SCO) or anti-miR21 2′OMe RNA (with 33% LNA substitution) was mixed with CPPs at different molar ratios (1:0-1:20) in MQ water in 1/10th of the final treatment volume (i.e 50 μl). Complexes were formed for 30 min in RT and meanwhile media was replaced in 24-well plates to fresh serum free DMEM (450 μl). Thereafter, complexes were added to each well. The final concentration of SCO was kept constant at 200 nM and peptide concentration was varied or complexes were formed at a given molar ratio using 400 nM SCO and then serial diluted in water. Complexes were prepared according to manufacturers protocol when using the commercial transfection reagent Lipofectamine 2000 (Promega, USA). PepFect/siRNA complexes were essentially formed in a similar manner but using 100 nM siRNA as starting concentrations and molar ratios ranging from 20-40. Lower concentrations were generated by doing serial dilutions."}, "HPRT1 in MEFs": {"test_system": "HPRT1 in MEFs", "test": "siRNA treatment, HPRT1 in MEFs", "assay_type": "cell-based", "details": "target HPRT1", "protocol": "as §1"}, "HPRT1 in primary glia": {"test_system": "HPRT1 in primary glia", "test": "siRNA treatment, HPRT1 in primary mixed glial cell culture", "assay_type": "cell-based, rat", "protocol": "RNAi in rat primary mixed glial cell culture following treatment with siRNA targeting HPRT1.\nas §1"}, "CHO cells": {"test_system": "CHO cells", "test": "Transfection of luciferase-encoding plasmid in CHO cells", "assay_type": "cell-based", "details": "24 h", "protocol": "Formation of plasmid/CPP complexes: 0.5 μg of pGL3 luciferase expressing plasmid or pEGFP-C1 plasmid was mixed with CPPs at different charge ratios (1:1-1:4) in MQ water in 1/10th of the final treatment volume (50 μl). […] When using Lipofectamine 2000, complexes were prepared according to manufacturers protocol (Promega, USA).\nPlasmid transfections: For plasmid transfection, 80 000 CHO or Jurkat cells were seeded 24 h before treatment. […] Cells were lysed and analyzed in accordance with the splice correction assay."}, "HPRT1 in B16 cells": {"test_system": "HPRT1 in B16 cells", "test": "siRNA treatment, HPRT1 in B16 cells", "assay_type": "cell-based", "details": "B16, target HPRT1", "protocol": "as §1"}, "HPRT1 in Jurkat cells": {"test_system": "HPRT1 in Jurkat cells", "test": "siRNA treatment, HPRT1 in Jurkat cells", "assay_type": "cell-based", "details": "target HPRT1", "protocol": "as §1"}, "TACE in SHSY5Y cells": {"test_system": "TACE in SHSY5Y cells", "test": "siRNA treatment, TACE in SHSY5Y cells", "assay_type": "cell-based, human", "details": "target TACE", "protocol": "as §1"}, "luciferase in U2OS cells": {"test_system": "luciferase in U2OS cells", "test": "siRNA treatment, luciferase down-regulation in luciferase-stable osteosarcoma cells (U2OS)", "assay_type": "cell-based", "protocol": "as §1, with “PepFect/siRNA complexes were essentially formed in a similar manner but using 100 nM siRNA as starting concentrations and molar ratios ranging from 20-40.” left out\n(§2) siRNA transfections: Different luciferase-stable cell lines including HeLa, BHK21, and U2OS cells were seeded as in the other experiments. Cells were treated for 4 h in serum-free or full growth media after which 1 ml of full growth media was added to the wells. Cells were lysed and measured for luminescence 20 h later as described previously. The luminescence was normalized to protein content in each well and the RLU/mg value from untreated cells were considered as 100%. Different treatments are then presented as % of untreated cells."}, "various cell types": {"test_system": "various cell types", "test": "siRNA delivery in various cell types, down-regulation of gene expression", "assay_type": "cell-based", "details": "low siRNA concentrations", "protocol": "as §1\nsiRNA transfections: Different luciferase-stable cell lines including HeLa, BHK21, and U2OS cells were seeded as in the other experiments. […] Cells were lysed and measured for luminescence 20 h later as described previously. The luminescence was normalized to protein content in each well and the RLU/mg value from untreated cells were considered as 100%. […]"}, "HPRT1 in SHSY5Y cells": {"test_system": "HPRT1 in SHSY5Y cells", "test": "siRNA treatment, HPRT1 knock-down in SHSY5Y neuroblastoma cells", "assay_type": "cell-based, human", "protocol": "HPRT1 knock-down in human SHSY5Y neuroblastoma cells following 20 h of siRNA treatment. PF6/siRNA particles where formulated at two different molar ratios and serial diluted to give a final treatment concentration of 100, 50 and 25 nM siRNA. Treatments were performed in full growth media and the RNAi response was compared to that induced by 100 nM siRNA complexed with Lipofectamine 2000.\nas §1"}, "[1]": {"test_system": "luciferase in BHK21 cells", "test": "siRNA treatment, luciferase down-regulation in luciferase-stable BHK21 cells", "assay_type": "cell-based", "protocol": "as §1, with “PepFect/siRNA complexes were essentially formed in a similar manner but using 100 nM siRNA as starting concentrations and molar ratios ranging from 20-40.” left out\nas §2"}, "[2]": {"details": "siRNA concentration, U2OS, target Luciferase"}, "[3]": {"details": "siRNA concentration, SHSY5Y, target HPRT1"}, "[4]": {"details": "siRNA concentration, Bhk21, target Luciferase"}},
  "data": [
    {"substance": "Stearyl-AGYLLGK[KK2sa4qn4]INLKALAALAKKIL-NH2 [Pepfect 6]", "values": [
      {"measurement": "70% inhibition", "setting": "HPRT1 in N2a cells; siRNA concentration", "value": "25 to 50", "unit": "nM"},
      {"measurement": "90% inhibition", "setting": "HPRT1 in N2a cells; siRNA concentration", "value": "50 to 100", "unit": "nM"},
      {"measurement": "Compared to Lipofectamine", "setting": "HPRT1 in N2a cells", "value": "better"},
      {"measurement": "70% inhibition", "setting": "HPRT1 in MEFs; siRNA concentration", "value": "10 to 25", "unit": "nM"},
      {"measurement": "90% inhibition", "setting": "HPRT1 in MEFs; siRNA concentration", "value": "25 to 50", "unit": "nM"},
      {"measurement": "Compared to Lipofectamine", "setting": "HPRT1 in MEFs", "value": "better"},
      {"measurement": "Compared to Lipofectamine", "setting": "HPRT1 in primary glia; Primary glia, target HPRT1", "value": "superior"},
      {"measurement": "siRNA-mediated gene silencing compared with Lipofectamine 2000", "setting": "HPRT1 in primary glia; in serum and under serum free conditions", "value": "significantly more potent than Lipofectamine 2000"},
      {"measurement": "90% inhibition", "setting": "HPRT1 in primary glia; siRNA concentration, Primary glia, target HPRT1", "value": "25 to 50", "unit": "nM"},
      {"measurement": "transfection compared to Lipofectamine 2000", "setting": "CHO cells; CR4, serum media", "value": "twice as efficiently"},
      {"measurement": "transfection compared to Lipofectamine", "setting": "CHO cells; charge ratio (CR) of 2, serum free media", "value": "one log higher"},
      {"measurement": "Compared to Lipofectamine", "setting": "HPRT1 in B16 cells", "value": "better"},
      {"measurement": "90% inhibition", "setting": "HPRT1 in B16 cells; siRNA concentration", "value": "25 to 50", "unit": "nM"},
      {"measurement": "90% inhibition", "setting": "HPRT1 in Jurkat cells; siRNA concentration", "value": 100, "unit": "nM"},
      {"measurement": "Compared to Lipofectamine", "setting": "HPRT1 in Jurkat cells", "value": "superior"},
      {"measurement": "90% inhibition", "setting": "TACE in SHSY5Y cells; siRNA concentration", "value": "50 to 70", "unit": "nM"},
      {"measurement": "Compared to Lipofectamine", "setting": "TACE in SHSY5Y cells", "value": "superior"},
      {"measurement": "Compared to Lipofectamine", "setting": "luciferase in U2OS cells; U2OS, target Luciferase", "value": "superior"},
      {"measurement": "lowest siRNA concentration with significant RNAi", "setting": "luciferase in U2OS cells; molar ratio 80", "value": 5, "unit": "nM"},
      {"measurement": "70% inhibition", "setting": "luciferase in U2OS cells; [2]", "value": "5 to 10", "unit": "nM"},
      {"measurement": "90% inhibition", "setting": "luciferase in U2OS cells; [2]", "value": "10 to 20", "unit": "nM"},
      {"measurement": "RNAi, result in words", "setting": "various cell types", "value": "almost a complete RNAi"},
      {"measurement": "RNAi response compared to Lipofectamine 2000 using 100 nM siRNA", "setting": "HPRT1 in SHSY5Y cells; MR40, 25 nM siRNA, full growth media, 20 h", "value": "significantly stronger"},
      {"measurement": "Compared to Lipofectamine", "setting": "HPRT1 in SHSY5Y cells; SHSY5Y, target HPRT1", "value": "superior"},
      {"measurement": "70% inhibition", "setting": "HPRT1 in SHSY5Y cells; [3]", "value": "10 to 25", "unit": "nM"},
      {"measurement": "90% inhibition", "setting": "HPRT1 in SHSY5Y cells; [3]", "value": "50 to 100", "unit": "nM"},
      {"measurement": "down-regulation of luciferase", "setting": "[1]; 50 nM siRNA, MR 10, 24 h treatment", "value": "more than 80%"},
      {"measurement": "Compared to Lipofectamine", "setting": "[1]; Bhk21, target Luciferase", "value": "better"},
      {"measurement": "luciferase expression, dose-response in words", "setting": "[1]; full growth media, 24 h after transfection", "value": "dose-dependent decrease in luciferase expression"},
      {"measurement": "70% inhibition", "setting": "[1]; [4]", "value": "2.5 to 5", "unit": "nM"},
      {"measurement": "90% inhibition", "setting": "[1]; [4]", "value": "5 to 20", "unit": "nM"},
      {"measurement": "efficacy to convey siRNA targeting luciferase, PF6 versus PF5", "setting": "[1]; two molar ratios, low siRNA concentration", "value": "superior to PF5"}
    ]}
  ]
}
